Read-outs that look alike come from different tables or passages of the source. *1 amine or outer side, *2 acyl side, *3 side chain or, on linkers, in order; H or OH if unused. Where a SMILES comes first, the peptide text is derived from it. Bridges are numbered along the chain shown (N, C = ends). [ ]: non-standard residue; d: D form. The star is where a group is joined. hTyr(3S-OH,4S-OH,3'-OSO3H) = N[C@H](C(=O)O)[C@H](O)[C@@H](O)c1ccc(O)c(OS(=O)(=O)O)c1; Orn(4R-OH,5R-OH) = O=C([C@H](C[C@@H](O)[C@@H](O)N[*:3])N[*:1])[*:2]; Pro(3S-OH,4S-Me) = C[C@H]1CN[C@H](C(=O)O)[C@H]1O; X1 = CCCCCOc1ccc(-c2cc(-c3ccc(C(=O)*)cc3)no2)cc1; Gln(3R-OH) = NC(=O)C[C@@H](O)[C@H](N)C(=O)O; Hyp = O=C(O)[C@@H]1C[C@@H](O)CN1
Experiments:
P. aeruginosa [1] = format: cell-based, Pseudomonas aeruginosa
Experimental: Growth and high-throughput LacZ assays were optimized in a 384-well plate format using three reporter strains In order to identify down-regulators of virulence, rather than growth-inhibitors of P. aeruginosa, special care was taken to eliminate compounds that (i) interfered with the LacZ assay and (ii) affected P. aeruginosa growth. […] Growth-inhibition assays using the small molecule library were performed by monitoring optical density at 600 nm (OD600 nm).
(§6) In various examples, bacterial growth was carried out in LB supplemented with 50 mM Mops, pH 7.0 (hereafter, LB-Mops). To commence a screen, a P. aeruginosa reporter strain from an LB agar plate was used to inoculate 5 mL of LB-Mops medium in a sterile 14-mL bacterial culture tube. The culture was grown for 4 h at 30° C./250 rpm. After 4 h, its optical density (OD600 nm) was determined on a Cary 60 UV-visible spectrophotometer (Agilent). The culture was diluted into 100 mL of LB-Mops to give a final OD600 nm of 0.05. Subsequently a volume of 50 μL was dispensed into each of six sterile, 384 well plates (Corning) using a Multiflo Microplate Dispenser (Biotek). Candidate elicitors were added to the plates using a CyBi-Well automated liquid transfer robot (CyBio). Each well was supplemented with 0.2 μL of a compound from the Enzo Scientific FDA approved drug library, which comprises 770 molecules. The compounds were dispensed into columns 3 through 22 on each plate. Columns 2 and 23 contained the negative control (the reporter strain being tested in the absence of any compounds), and columns 1 and 24 contained the positive control (e.g., strain phzB2-lacZ). Each compound was tested in duplicate, using three 384-well plates per set. Each plate was covered with a Breathe-Easy sealing membrane (Sigma) and cultured at 30° C./250 rpm in a Multitron Shaker (ATR) equipped with green sealing tray. To maintain constant humidity, several 1-L Erlenmeyer flasks containing 200 mL of sterile water were also placed inside the shaker. After 12 h, the plates were removed from the shaker. The β-Glo reagent (Promega) was used to monitor LacZ activity. The reagent was diluted 3:1 with water. Then each well was supplemented with 15 μL of the diluted β-Glo reagent using the Multiflo automated dispenser, manually shaken to mix, and incubated in the dark at room temperature for 10 min. Total end-point luminescence was then determined on a Synergy H1MF plate reader (Biotek).

[2] = system: pmrB::Tn mutant (QseC homolog); assay: HHQ and pyocyanin production in pmrB::Tn mutant; format: cell-based, Pseudomonas aeruginosa; conditions: pmrB::Tn cultures supplemented with guanfacine
Experimental: FIG. 4 is a graph of the quantification of the levels of HHQ (black bars) and pyocyanin (white bars) in guanfacine-treated and untreated cultures.
To explore this idea, a mutant carrying a transposon insertion in pmrB (pmrB::Tn) was tested. Both wt and mutant strains were grown in the presence of guanfacine or DMSO (control), and the production of HHQ was quantified directly using HPLC-MS, while pyocyanin synthesis was assessed as previously reported. […] In the absence of the sensor His kinase, guanfacine was unable to exert its down-regulatory effect, especially with pyocyanin where significant production remained.
(§1) HPLC-MS analysis. Direct detection and quantification of HHQ and PQS was carried out by growing wt P. aeruginosa under identical conditions as described above (for growth in 50 mL Erlenmeyer flasks). […] The organic layer was separated, dried completely in a speedvac concentrator, resuspended in 0.5 mL of MeOH, and analysed on an Agilent HPLC-MS consisting of a liquid autosampler, a 1260 Infinity Series HPLC system coupled to a photodiode array detector and a 6120 Series ESI mass spectrometer. […]
(§2) Pyocyanin quantification. Pyocyanin quantification was carried by a method adapted from Essar et al.[17] […] 120 μL of this extract was transferred to a clear 96-well plate and the OD520 nm was recorded using a plate reader. […]

pyocyanin biosynthesis = assay: Pyocyanin quantification; format: cell-based, Pseudomonas aeruginosa; conditions: treated vs untreated cultures, concentration-dependent
Text: FIG. 3C is a graph showing the dose-dependent reduction of pyocynanin biosynthesis as a function of guanfacine concentration.
The effects of guanfacine were probed further by measuring the levels of pyocyanin, a downstream product of phenazine. Pyocyanin is the blue secondary metabolite responsible for both the toxicity and characteristic color of P. aeruginosa. […]. Without being bound to a particular theory, the likely cause of the incomplete suppression of pyocyanin synthesis is the existence of two independently-expressed copies of the phenazine biosynthetic operon. Nonetheless, the direct measurement of pyocyanin corroborates results observed with the reporter strains. The production of both phenazines and pyocyanin is known to be regulated by the las and pqs QS circuits. Specifically, in response to 3O-C12-HSL, LasR induces expression of the pqs operon and the LysR-type regulator, PqsR. The PQS/PqsR complex then activates phenazine and pyocyanin synthesis. To verify that guanfacine acts upstream of both products, levels of quinolines were directly measured. […].
as §2

pelB-lacZ = pelB-lacZ reporter dose-response; format: cell-based, Pseudomonas aeruginosa
Text: (§3) FIG. 3F is a graph of the dose-response of the expression of pelG and pelB, involved in biofilm production, as a function of guanfacine concentration, using the appropriate LacZ reporter strain.
(§4) Another important virulence determinant in P. aeruginosa is biofilm formation. A cluster of genes, termed pel regulated by the las QS system, have been established as responsible for producing the biofilm matrix exopolysaccharide. Two reporter strains carrying translational lacZ fusions (pelB-lacZ and pelG-lacZ) were subjected to guanfacine dose-response analysis. […].
(§5) Assays were carried out in 50 mL Erlenmeyer flasks containing 10 mL of LB-Mops. For LacZ assays, an appropriate reporter strain from an LB agar plate was used to inoculate 5 mL of LB-Mops in a sterile 14 mL bacterial culture tube. After 4 h, OD600 nm was determined, and the culture subsequently diluted to an initial OD600 nm of 0.05 in a 50 mL Erlenmeyer flask. The compound of interest was added from stock concentrations generated in DMSO. A control containing only DMSO was also included. Assays were typically carried out in three biological replicates. […] End-point luminescence was determined on a Biotek H1MF plate reader. To obtain IC50 values, the averaged luminescence output (used to determine LacZ activity) was plotted against the log of the concentration of the inhibitor. […]

HHQ and PQS production = assay: HPLC-MS quantification of HHQ and PQS in wt P. aeruginosa; format: cell-based, Pseudomonas aeruginosa
Experimental: FIG. 3D is a graph showing the relative quantification of HHQ and PQS produced by wt P. aeruginosa as a function of guanfacine concentration, normalized to an untreated control.
[…]. This HPLC analysis of cell-free supernatants of P. aeruginosa in the absence (solid lines) or presence (dashed lines) of 40 μM guanfacine. Peaks corresponding to HHQ and PQS are labeled, peaks of other quinolones are indicated with an asterisk.
The effects of guanfacine were probed further by measuring the levels of pyocyanin, a downstream product of phenazine. Pyocyanin is the blue secondary metabolite responsible for both the toxicity and characteristic color of P. aeruginosa. […]. […] To verify that guanfacine acts upstream of both products, levels of quinolines were directly measured. […]
as §1

[3] = system: virulence factor expression (seven lacZ reporter strains); format: cell-based, Pseudomonas aeruginosa
Text: Seven reporter strains from the sequence-verified transposon mutant library generated by Manoil and colleagues were identified, in which transposons carrying a promoterless lacZ reporter were inserted into the genome of P. aeruginosa. The strains selected carried an in-frame lacZ reporter in aprD (alkaline protease), pqsA (PQS biosynthesis), hcnB (HCN biosynthesis), algK (alginate biosynthesis), phzB2 and phzF1 (phenazine biosynthesis from two different gene clusters), and plcH (phospholipase C). […] By carrying out an ex vivo LacZ assay, all LacZ assay inhibitors in a library of small molecules were identified. Growth-inhibition assays using the small molecule library were performed by monitoring optical density at 600 nm (OD600 nm).
After a defined growth period, the expression of each of the seven reporter strains was determined using high-throughput LacZ assays. The LacZ activity was normalized relative to the negative control. The log10 of the fold-change for each of the seven strains were combined and colorized to produce an anti-virulence heat-map.
as §6

phzB2-lacZ = phzB2-lacZ reporter dose-response; format: cell-based; conditions: Pseudomonas aeruginosa, read-out: IC50, concentration at which half-maximal down-regulation was observed (phzB2 reporter)
Experimental: FIG. 3B is a graph showing the dose-response of phzB2-lacZ as a function of guanfacine concentration.
Assays were carried out in 50 mL Erlenmeyer flasks containing 10 mL of LB-Mops. For LacZ assays, an appropriate reporter strain from an LB agar plate was used to inoculate 5 mL of LB-Mops in a sterile 14 mL bacterial culture tube. After 4 h, OD600 nm was determined, and the culture subsequently diluted to an initial OD600 nm of 0.05 in a 50 mL Erlenmeyer flask. The compound of interest was added from stock concentrations generated in DMSO. A control containing only DMSO was also included. Assays were typically carried out in three biological replicates. A positive control culture, phzB2-lacZ in the absence of any compounds, was grown in parallel as well. The cultures were grown at 30° C./200 rpm. After 12 h, 65 μL was removed from each culture flask and dispensed into a sterile, white 96-well plate (Corning). Each well was supplemented with 35 μL of 3:1 diluted β-Glo reagent (Promega). The plate was incubated in the dark at room temperature for 10 minutes. End-point luminescence was determined on a Biotek H1MF plate reader. To obtain IC50 values, the averaged luminescence output (used to determine LacZ activity) was plotted against the log of the concentration of the inhibitor. The data were fit to a dose-response curve using GraphPad Prism software.

[4] = system: seven virulence genes (aprD, pqsA, hcnB, algK, phzB2, phzF1, plcH lacZ reporters); assay: LacZ assay in flask cultures, seven virulence reporter strains; format: cell-based, Pseudomonas aeruginosa; conditions: relative to untreated control
Text: FIG. 3A is a graph showing the transcriptional down-regulation of seven virulence genes by guanfacine relative to an untreated control.
The effect of guanfacine on the expression of virulence factors was verified in flask cultures. […].
In one example, reporter genes for the various virulence factors encoded in the P. aeruginosa genome were selected. Seven reporter strains from the sequence-verified transposon mutant library generated by Manoil and colleagues were identified, in which transposons carrying a promoterless lacZ reporter were inserted into the genome of P. aeruginosa. The strains selected carried an in-frame lacZ reporter in aprD (alkaline protease), pqsA (PQS biosynthesis), hcnB (HCN biosynthesis), algK (alginate biosynthesis), phzB2 and phzF1 (phenazine biosynthesis from two different gene clusters), and plcH (phospholipase C). […]
Assays were carried out in 50 mL Erlenmeyer flasks containing 10 mL of LB-Mops. […] After 4 h, OD600 nm was determined, and the culture subsequently diluted to an initial OD600 nm of 0.05 in a 50 mL Erlenmeyer flask. […] End-point luminescence was determined on a Biotek H1MF plate reader. To obtain IC50 values, the averaged luminescence output (used to determine LacZ activity) was plotted against the log of the concentration of the inhibitor. […]

P. aeruginosa [5] = assay: Growth curve of P. aeruginosa in absence and presence of guanfacine; format: cell-based, Pseudomonas aeruginosa; conditions: 10, 20, 40 and 80 μM guanfacine
Experimental: FIG. 2 is a graph showing the growth curve of P. aeruginosa in the absence (DMSO) and presence of guanfacine in various concentrations (10 μM, 20 μM, 40 μM, and 80 μM).

pelG-lacZ = pelG-lacZ reporter dose-response; format: cell-based, Pseudomonas aeruginosa
Text: as §3, §4, §5

phzF1-lacZ = assay: microbe, parasite or virus in culture; format: cell-based
[6] = system: P. aeruginosa phzF1-lacZ strain; assay: Dose-dependent growth inhibition of phzF1-lacZ strain by antibiotics; format: cell-based
[7] = relative to the untreated strain, OD600 nm after 12 h
[8] = LacZ activity normalized to negative control, seven reporter strains
[9] = Pseudomonas aeruginosa; read-out: EC50, concentration at which induction of phzF1-lacZ was half-maximal
[10] = Pseudomonas aeruginosa, PHZF1LACZSTRAIN; read-out: growth-inhibitory IC50

## CCCCCCCCc1ccc(CCC(N)(CO)CO)cc1 [Fingolimod]
P. aeruginosa [1]; [7]
  % Growth Inhibition: 76%

## CC/C(=C(\c1ccccc1)c1ccc(OCCN(C)C)cc1)c1ccccc1 [Tamoxifen]
P. aeruginosa [1]
  % Growth Inhibition: 57%

## N=C(N)NC(=O)Cc1c(Cl)cccc1Cl [guanfacine]
[2]
  effect on HHQ and pyocyanin production in pmrB::Tn cultures: no further effect
Pyocyanin biosynthesis
  reduction in the levels of pyocyanin: 1.5 fold
pelB-lacZ; 80 μM guanfacine
  suppression of pelB expression: Nearly complete suppression
pelB-lacZ; Pseudomonas aeruginosa, pelB-lacZ
  IC50: 5.8 µM
HHQ and PQS production
  levels of HHQ, PQS and several other quinolines: decreased levels
HHQ and PQS production; 40 μM guanfacine
  fold less PQS relative to DMSO-treated control: 4.5 fold
[3]; [8]
  effect on virulence factor expression in screen: A similar effect
phzB2-lacZ
  IC50: 19 µM
[4]
  reduction of reporter expression across seven reporter strains: 2-9 fold
P. aeruginosa [5]
  growth inhibition (growth curve versus DMSO control): not growth-inhibitory
pelG-lacZ; 80 μM guanfacine
  suppression of pelG expression: Nearly complete suppression
pelG-lacZ; Pseudomonas aeruginosa, pelG-lacZ
  IC50: 3.1 µM

## COc1ccc2cc([C@H](C)C(=O)O)ccc2c1 [naproxen]
[3]
  effect on virulence factor expression in screen: down-regulated virulence factor expression

## CCCCCOc1ccc(-c2cc(-c3ccc(C(=O)N[C@H]4C[C@@H](O)[C@@H](O)NC(=O)[C@@H]5[C@@H](O)[C@@H](C)CN5C(=O)[C@H]([C@H](O)CC(N)=O)NC(=O)[C@H]([C@H](O)[C@@H](O)c5ccc(O)c(OS(=O)(=O)O)c5)NC(=O)[C@@H]5C[C@@H](O)CN5C(=O)[C@H]([C@@H](C)O)NC4=O)cc3)no2)cc1 [Micafungin] (X1-[Orn(4R-OH,5R-OH)]T[Hyp][hTyr(3S-OH,4S-OH,3'-OSO3H)][Gln(3R-OH)][Pro(3S-OH,4S-Me)]; lactam 1-C)
P. aeruginosa [1]; [7]
  % Growth Inhibition: 54%

## Cc1ccc(C(=O)c2cc(O)c(O)c([N+](=O)[O-])c2)cc1 [tolcapone]
[3]; [8]
  effect on virulence factor expression in screen: A similar effect

## CC(C)(O/N=C(\C(=O)N[C@@H]1C(=O)N2C(C(=O)O)=C(C[n+]3ccccc3)CS[C@H]12)c1csc(N)n1)C(=O)O [ceftazidime]
phzF1-lacZ; [9]
  EC50: 21 µM
[6]; [10]
  IC50: 53 µM

## [H]/N=C(\N/C(=N/[H])NCCCCCCNC(=N)NC(=N)Nc1ccc(Cl)cc1)Nc1ccc(Cl)cc1 [Chlorhexidine]
P. aeruginosa [1]; [7]
  % Growth Inhibition: 96%

## Colistin
P. aeruginosa [1]; [7]
  % Growth Inhibition: 96%

## CCN1CCN(C(=O)N[C@@H](C(=O)N[C@@H]2C(=O)N3[C@@H]2SC(C)(C)[C@@H]3C(=O)O)c2ccccc2)C(=O)C1=O [Piperacillin]
phzF1-lacZ; [9]
  EC50: 8.4 µM
[3]; [8]
  effect on virulence factor expression in screen: further enhance the expression of virulence factors
[6]; [10]
  IC50: 6.4 µM

## C[C@]12CC[C@@H]3c4ccc(O)cc4CC[C@H]3[C@@H]1CC[C@@H]2O [Estradiol]
P. aeruginosa [1]; [7]
  % Growth Inhibition: 73%

## COc1cc(Cc2cnc(N)nc2N)cc(OC)c1OC [Trimethoprim]
P. aeruginosa [1]
  % Growth Inhibition: 73%

## CC(C)Cc1ccc(C(C)C(=O)O)cc1 (stereo not drawn) [ibuprofen]
[3]; [8]
  effect on virulence factor expression in screen: down-regulated virulence factor expression

## CO/N=C(\C(=O)N[C@@H]1C(=O)N2C(C(=O)O)=C(C[N+]3(C)CCCC3)CS[C@H]12)c1csc(N)n1 [cefepime]
[6]; [10]
  IC50: 4.6 µM

## O=C(N[C@H](CO)[C@H](O)c1ccc([N+](=O)[O-])cc1)C(Cl)Cl [Chloramphenicol]
P. aeruginosa [1]; [7]
  % Growth Inhibition: 64%

## CN1CCc2cccc3c2[C@H]1Cc1ccc(O)c(O)c1-3 [apomorphine]
[3]
  effect on virulence factor expression in screen: A similar effect

## C/C=C/C1=C(C(=O)O)N2C(=O)[C@@H](NC(=O)[C@H](N)c3ccc(O)cc3)[C@H]2SC1 [cefprozil]
phzF1-lacZ; Pseudomonas aeruginosa, read-out: EC50, concentration at which induction of phzF1-lacZ was half-maximal
  EC50: 58 µM
[6]; Pseudomonas aeruginosa, PHZF1LACZSTRAIN, read-out: growth-inhibitory IC50
  IC50: 362 µM

## CC(C(=O)O)c1cccc(C(=O)c2ccccc2)c1 (stereo not drawn) [ketoprofen]
[3]
  effect on virulence factor expression in screen: down-regulated virulence factor expression

— patent US11813235B2, “Guanfacine as an anti-virulence agent” (priority 2019, dated 2023)
